One data set deals with T1, sEH (Homo sapiens, UniProt P34913).
T1 sequence (P34913 1-555): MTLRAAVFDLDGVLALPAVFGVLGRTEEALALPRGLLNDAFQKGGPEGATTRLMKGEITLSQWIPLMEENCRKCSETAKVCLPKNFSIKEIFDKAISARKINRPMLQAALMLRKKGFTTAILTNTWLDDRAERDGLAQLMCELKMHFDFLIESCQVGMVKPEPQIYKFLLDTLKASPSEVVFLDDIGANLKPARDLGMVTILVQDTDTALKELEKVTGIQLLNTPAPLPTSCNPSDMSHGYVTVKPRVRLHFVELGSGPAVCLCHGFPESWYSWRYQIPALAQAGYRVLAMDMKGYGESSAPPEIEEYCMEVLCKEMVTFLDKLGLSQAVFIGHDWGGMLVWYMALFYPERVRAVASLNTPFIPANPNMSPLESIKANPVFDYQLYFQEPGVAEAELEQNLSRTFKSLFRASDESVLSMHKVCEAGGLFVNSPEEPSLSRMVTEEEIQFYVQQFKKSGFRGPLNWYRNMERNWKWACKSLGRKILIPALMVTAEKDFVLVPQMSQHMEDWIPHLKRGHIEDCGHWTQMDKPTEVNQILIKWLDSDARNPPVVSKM
The data set can be described thus: Testing as sEH inhibitors (method not described). The format is biochemical. From the text: (Both the 1- and the 2-admamantyl ureas have been tested and have about the same high activity as an inhibitor of sEH. Thus, isomers of adamantyl dodecyl urea are preferred inhibitors. It is further expected that N, N′-dodecyl-cyclohexyl urea (DCU), and other inhibitors of sEH, and particularly dodecanoic acid ester derivatives of urea, are suitable for use in the methods. Preferred inhibitors include:
U.S. Pat. No. 5,955,496 (the '496 patent) also sets forth a number of sEH inhibitors which can be used in the methods. One category of these inhibitors comprises inhibitors that mimic the substrate for the enzyme. The lipid alkoxides (e.g., the 9-methoxide of stearic acid) are an exemplar of this group of inhibitors.

The format of data set [1] is in vitro ADME. From the text: (Both the 1- and the 2-admamantyl ureas have been tested and have about the same high activity as an inhibitor of sEH. Thus, isomers of adamantyl dodecyl urea are preferred inhibitors. It is further expected that N, N′-dodecyl-cyclohexyl urea (DCU), and other inhibitors of sEH, and particularly dodecanoic acid ester derivatives of urea, are suitable for use in the methods. Preferred inhibitors include: […]

The structures appear in SMILES notation.

For the molecule `CCCCCCCCCCCCNC(=O)NC12CC3CC(CC(C3)C1)C2` [ADU, N-Adamantyl-N′-dodecyl urea], on sEH, the “activity as an inhibitor of sEH” value is listed as “particularly high activity”. Also, the metabolic stability result in data set [1] is “metabolically stable”.

Values taken from patent US11690837B2, “Methods of improving cell-based therapy” (THE REGENTS OF THE UNIVERSITY OF CALIFORNIA, priority 2014, dated 2023).
